Assay results from patent publication US9937261B2 (LIPOMEDIX PHARMACEUTICALS LTD., priority 2014, dated 2018).

Tested on: human cervical carcinoma (CaSki) tumor
Experiment: Anti-tumor effect of prodrug and radiation therapy, CaSki tumor-bearing mice (Example 2)
Details: 5 Gy irradiation in three fractions plus i.v. drug (prodrug 30 mg/kg, free mitomycin C 3.3 mg/kg), 21 days, FIG. 1
Experimental: Tumor volume was measured for 21 days and the change in tumor volume (ratio of tumor volume at day zero to tumor volume at indicated day post injection) as a function of days post injection of the chemotherapeutic agent was measured.
Cells from a human cervical carcinoma cell line, CaSki, were injected subcutaneously (1 million cells in 200 μL 1:1 RPMI and matrigel) into the left flank of 8 week old female Nu mice. Two weeks after inoculation, mice were treated three times with 5 Gy irradiation. […] Tumor volume was measured for 21 days in all test mice.

SMILES: CO[C@@]12[C@H](COC(N)=O)C3=C(C(=O)C(C)=C(N)C3=O)N1C[C@@H]1N[C@@H]12 [free mitomycin C, mitomycin C]
- tumor growth (change in tumor volume): little or no tumor growth
